Molecular target: T1, Cls2 (Agrobacterium fabrum, UniProt A9CHR9)
T1 construct: gene cls; native full-length enzyme in A. tumefaciens crude extract (wild type and delta-cls1 lysates, assigned by loss in delta-cls2); about 54 kDa, not purified, no tag
T1 sequence (A9CHR9 1-486): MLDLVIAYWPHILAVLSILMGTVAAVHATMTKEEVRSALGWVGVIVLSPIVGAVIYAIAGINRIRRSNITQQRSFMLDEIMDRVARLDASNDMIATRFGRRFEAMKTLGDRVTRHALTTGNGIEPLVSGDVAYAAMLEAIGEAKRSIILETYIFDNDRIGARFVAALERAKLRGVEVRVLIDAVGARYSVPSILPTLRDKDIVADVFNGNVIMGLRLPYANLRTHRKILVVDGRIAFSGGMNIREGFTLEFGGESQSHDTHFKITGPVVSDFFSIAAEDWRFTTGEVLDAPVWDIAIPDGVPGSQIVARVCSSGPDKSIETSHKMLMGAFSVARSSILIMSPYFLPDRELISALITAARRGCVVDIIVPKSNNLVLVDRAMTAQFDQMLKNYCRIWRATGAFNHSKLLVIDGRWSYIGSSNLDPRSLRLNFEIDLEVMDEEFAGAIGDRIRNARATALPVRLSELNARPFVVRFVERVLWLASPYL
Assay: CL formation in crude extract of wild type and cls deletion strains, lipid extraction, 1D-TLC
Format: biochemical
Conditions: 0.4 mM lipid in micellar form, 0.02% Triton X-100, 50 mM Tris/HCl, 50 mM NaCl, pH 8, 30 C, 12 h; 300 ug total protein

CCCCCCCC/C=C\CCCCCCCC(=O)OC[C@H](COP(=O)(O)OCC(O)CO)OC(=O)CCCCCCC/C=C\CCCCCCCC (mixture of isomers) [PG, 1,2-dioleoyl-sn-glycero-3-phospho-rac-(1-glycerol)]
CL formation in crude extract of wild type and cls deletion strains, lipid extra: suggesting that PG-dependent CL accumulation is mediated by Cls2

Reference: PMC4966929, “Two Distinct Cardiolipin Synthases Operate in Agrobacterium tumefaciens” (PLoS ONE, 2016)
